These results are taken from patent US20100130603A1, “MEDICAMENT FOR PROPHYLACTIC AND THERAPEUTIC TREATMENT OF DERMATOSIS RESULTING FROM EXCESSIVELY ADVANCED KERATINIZATION” (KYOTO UNIVERSITY, priority 2007, published 2010).

In one experiment the test system is Serca2 gene. The experiment in a line: Serca2 mRNA induction in normal human epidermal keratinocytes (NHEK), Northern blotting. Type of experiment: cell-based. The settings on record: for strength of Serca2 gene inducing action: comparison among inducers. Here is the method: Normal human epidermal keratinocytes (NHEK) were cultured in a serum-free medium (KGM medium) from which only hydrocortisone was excluded. A test substance dissolved in dimethyl sulfoxide (DMSO) as a solvent was added to the medium and culture was continued, and amount of mRNA of Serca2 gene in the epidermal keratinocytes was quantified by Northern blotting after 3, 6, and 9 hours. […] RNA was extracted 0, 3, 6, 12, 18, 24, and 48 hours after the addition of WiN55,212-2 to the epidermal keratinocytes, and expression of Serca2 gene was observed by Northern blotting.
Test substances including various kinds of vanilloid agonists were examined in the same manner as that of Example 1.

In experiment [1] the test system is skin samples of healthy persons. In words: Pathological changes by HE staining in skin samples of healthy persons under organ culture. Type of experiment: cell-based. The settings on record: healthy human skin organ culture, optimum concentration, fixed after 24 to 48 hours. Here is the method: Optimum concentrations of dihomo-γ-linolenoyldopamine, WIN55,212-2, DPTHF as a vanilloid antagonist, and DMSO (control) were each added to skin samples of healthy persons and kept under a state of organ culture in the same manner as in Example 3. The skin samples were fixed after 24 to 48 hours, and pathological changes were observed by HE staining.

Experiment [2] deals with ATP2A protein. In words: ATP2A protein localization by immunostaining in skins of healthy persons transplanted to nude mice. The experiment is classed as in vivo. The settings on record: healthy human skin on nude mice, optimum concentration applied every day for 5 days. From the text: Skins of healthy persons were transplanted to nude mice, and after one week under acceptance of graft, optimum concentrations of dihomo-γ-linolenoyldopamine, WIN55,212-2, DPTHF as a vanilloid antagonist, and DMSO (control) were each applied every day for 5 days. The skin samples where the application was made were fixed after biopsy, and localization of ATP2A protein was identified by immunostaining.

Experiment [3] has as its system skin samples of Darie's disease patients. In words: Pathological changes by HE staining in skin of Darie's disease patients transplanted to nude mice, applied 5 days. Type of experiment: in vivo, human skin transplanted to nude mice. The settings on record: Darie's disease patient skin on nude mice, optimum concentration applied every day for 5 days. From the text: Skin samples of Darie's disease patients were collected under informed consent of the patients, and transplanted to nude mice, and after one week under acceptance of graft, optimum concentrations of dihomo-γ-linolenoyldopamine, WIN55,212-2, and DMSO (control) were each applied to the skin samples every day for 5 days. The skins where the application was made were fixed after biopsy, and pathological changes were observed by HE staining.

A further experiment deals with ATP2A2 mRNA. The experiment in a line: ATP2A2 mRNA expression in epidermal keratinocytes of Darier's disease patients, Northern blotting. Type of experiment: cell-based, human. The settings on record: keratinocyte cell lines of 3 Darier's disease patients, 6 hours after treatment, 10^−6 to 10^−9 mol. Here is the method:
Epidermal keratinocytes were collected from skins of pathological lesions of 3 Darier's disease patients, and cultured to establish cell lines. The cells were treated with WIN55,212-2 or a vanilloid agonist (dihomo-γ-linolenoyldopamine or eicosa-11Z,14Z-dienoyldopamine), and after 6 hours, RNAs were extracted and the expression of ATP2A2 mRNA was observed by Northern blotting. […] When the epidermal keratinocytes of the other two Darie's disease patients were used, similar results were obtained.

Experiment [4] relates to three-dimensionally cultured skin model of Darie's disease patients' keratinocytes. The experiment in a line: Darie's disease model skin by three-dimensional culture. The experiment is classed as cell-based, human. The settings on record: added to the medium; keratinocytes with fibroblasts or interstitial components; 5 to 11 days. Here is the method:
In order to construct a model skin of Darie's disease which is readily reproducible and can be repetitively applied for assays, a […] model skin was constructed by three-dimensional culture of a combination of cultured epidermal keratinocytes and fibroblasts of Darie's disease patients, or three-dimensional culture of a combination of cultured epidermal keratinocytes Darie's disease patients and interstitial components. WIN55,212-2 or dihomo-γ-linolenoyldopamine was added to the medium of the above model skin to confirm the actions thereof. […] With the DMSO treatment as a control, individual keratinization and acantholysis remained, and pathological conditions corresponding to the pathological pictures of Darie's disease were observed.

In experiment [5] the test system is skin samples of Darie's disease patients. In words: Pathological examination of skin of Darie's disease patients transplanted to nude mice, applied 9 days. The experiment is classed as in vivo, human skin transplanted to nude mice. The settings on record: Darie's disease patient skin on nude mice, applied for 9 days in DMSO. Here is the method: Skin samples of Darie's disease patients with an area of 1 to 2 cm square were transplanted to nude mice, and acceptance of graft was confirmed after 7 days. Thereafter WIN55,212-2 or dihomo-γ-linolenoyldopamine was applied for 5 to 9 days using dimethyl sulfoxide (DMSO) as a solvent, and effectiveness of the drugs was determined on the basis of pathological examinations. This method is effective for successful determination of efficacy of a drug under a condition closest to the affected patient's skin. […] Where a solvent (DMSO) was applied as the control, dyskeratosis, parakeratosis, and blistering remained, the granular layer remained disappeared, and pathological pictures of Darie's disease were observed even after the transplantation. It is considered that the medicament of the present invention has sufficient effectiveness on inflammatory keratosis such as psoriasis vulgaris, as well as on Darie's disease, because potent therapeutic effect that achieves successful recover of even the formation of normal granular layer was observed when the cannabinoid agonist was applied.

Experiment [6] has as its system ATP2A protein. The experiment in a line: ATP2A protein localization by immunostaining in human skin under organ culture. Type of experiment: cell-based. The settings on record: optimum concentration, fixed after 24 hours. Here is the method:
Human skin under a state of organ culture was added with optimum concentration of dihomo-γ-linolenoyldopamine or DMSO (control), and after 24 hours later, the skin was fixed, and then localization of ATP2A protein, which is the causative protein of Darie's disease, was identified by immunostaining.

[7] abbreviates: vanilloid agonists, same manner as Example 1.
[8] abbreviates: synthetic cannabinoid agonists in DMSO, Northern blotting after 3, 6 and 9 hours.

Regarding `NCCOB(c1ccccc1)c1ccccc1` [2-aminoethoxydiphenyl borate (2-APB), 2-aminoethoxydiphenyl borate], in the experiment with Serca2 gene (setting [7]), the “induction of Serca2 gene (mRNA)” value is “induced the Serca2 gene”.

Take `CCCCCCCCCC(=O)O[C@@H]1[C@@H](C)[C@@]2(O)[C@@H](C=C(CO)C[C@@]3(O)C(=O)C(C)=C[C@@H]23)[C@@H]2C(C)(C)[C@]12OC(=O)CCCCCCCCC` [4-α-phorbol 12,13-didecanoate (4α-PDD), 4-α-phorbol 12,13-didecanoate]: in the experiment with Serca2 gene (setting [7]), the “induction of Serca2 gene (mRNA)” value is “induced the Serca2 gene”.

Take `COc1ccc2c(c1)c(CC(=O)N1CCOCC1)c(C)n2C(=O)c1ccc(Cl)cc1` [BML-190]: in the experiment on Serca2 gene (setting [8]), the “induction of Serca2 gene (mRNA)” value is on record as “induction of Serca2 gene was induced”.

Regarding `c1ccc(C2(c3ccccc3)CCCO2)cc1` [DPTHF, diphenyltetrahydrofuran], the “pathological changes by HE staining” value in experiment [1] was “pathological images similar to those of Darie's disease such as individual keratinization and acantholysis were observed”. The “localization/expression of ATP2A protein by immunostaining” value (“localization/expression of ATP2A protein” below) with ATP2A protein [2] is “decrease of expression of ATP2A2 was observed”. In addition, the “inducing action of vanilloid agonists on Serca2 gene expression when the vanilloid antagonist coexisted” value in the experiment with Serca2 gene (coexisting with vanilloid agonists (FIG. 7: dihomo-γ-linolenoyldopamine+DPTHF)) is reported as “disappeared”.

Turning to `Cc1c(C(=O)c2cccc3ccccc23)c2cccc3c2n1[C@H](CN1CCOCC1)CO3` [WIN55,212-2], the results for the “pathological changes by HE staining” value in experiment [3] and in experiment [1] were “these pathological changes characteristic to Darie's disease disappeared” and “remained in a state of physiological skin not distinguishable from healthy skins”, respectively. For the same compound, the “localization/expression of ATP2A protein” value with ATP2A protein [2] is on record as “excessively advanced expression in the basal layer was observed”. The “induction of Serca2 gene (mRNA)” value in the experiment on Serca2 gene (setting [8]) is reported as “induction of Serca2 gene was induced”. Moreover, in the experiment on ATP2A2 mRNA, the “expression of ATP2A2 mRNA” value is “concentration-dependent promotion of expression of ATP2A2 was observed”. The “pathological pictures in three-dimensional model skin” value in experiment [4] was “recovery of three-dimensional skin having quality similar to that of healthy skin was observed”. In addition, the “pathological pictures (effectiveness by pathological examination)” value in experiment [5] is “dyskeratosis, parakeratosis, and blistering were disappeared, and normal keratinization was observed with recovered granular layer”.

`CCCCC/C=C\C/C=C\C/C=C\CCCCCCC(=O)NCCc1ccc(O)c(O)c1` [dihomo-γ-linolenoyldopamine]: the “pathological changes by HE staining” value in experiment [3] is given as “these pathological changes characteristic to Darie's disease disappeared”; in experiment [1], “remained in a state of physiological skin not distinguishable from healthy skins”. In addition, the “localization/expression of ATP2A protein” value in the experiment on ATP2A protein [2] and in the experiment with ATP2A protein [6] was “excessively advanced expression in the basal layer was observed” throughout. Besides, the “strength of Serca2 gene inducing action” value with Serca2 gene (vanilloid agonists) is “potent inducing action”. Also, in the experiment with Serca2 gene (setting [7]), the “induction of Serca2 gene (mRNA)” value is recorded as “induced the Serca2 gene”. Besides, the “expression of ATP2A2 mRNA” value in the experiment with ATP2A2 mRNA is reported as “concentration-dependent promotion of expression of ATP2A2 was observed”. In experiment [4], the “pathological pictures in three-dimensional model skin” value is “recovery of three-dimensional skin having quality similar to that of healthy skin was observed”. The “pathological pictures (effectiveness by pathological examination)” value in experiment [5] is “dyskeratosis and blistering disappeared, and the granular layer also slightly recovered, but keratinization accompanied by parakeratosis slightly remained”.

Consider `CC/C=C\C/C=C\C/C=C\C/C=C\C/C=C\C/C=C\CCC(=O)NCCc1ccc(O)c(O)c1` [docosahexaenoyldopamine], for which the “induction of Serca2 gene (mRNA)” value with Serca2 gene (setting [7]) is given as “induced the Serca2 gene”.

Turning to `CCCCC/C=C\C/C=C\C/C=C\C/C=C\CCCCCC(=O)NCCc1ccc(O)c(O)c1` [docosatetra-7Z,10Z,13Z,16Z-enoyldopamine], the “induction of Serca2 gene (mRNA)” value in the experiment on Serca2 gene (setting [7]) is listed as “induced the Serca2 gene”.

`CCCCC/C=C\C/C=C\CCCCCCCCCC(=O)NCCc1ccc(O)c(O)c1` [eicosa-11Z,14Z-dienoyldopamine]: in the experiment on Serca2 gene (vanilloid agonists), the “strength of Serca2 gene inducing action” value is recorded as “potent inducing action”. Also, the “induction of Serca2 gene (mRNA)” value with Serca2 gene (setting [7]) is given as “induced the Serca2 gene”. For the same compound, the “expression of ATP2A2 mRNA” value in the experiment with ATP2A2 mRNA is “concentration-dependent promotion of expression of ATP2A2 was observed”.

With `CC/C=C\C/C=C\C/C=C\C/C=C\C/C=C\CCCC(=O)NCCc1ccc(O)c(O)c1` [eicosapentaenoyldopamine], in the experiment with Serca2 gene (setting [7]), the “induction of Serca2 gene (mRNA)” value is on record as “induced the Serca2 gene”.

On to `CCCCC/C=C\C/C=C\C/C=C\C/C=C\CCCC(=O)N[C@H](C)CO` [methanandamide], for which the “induction of Serca2 gene (mRNA)” value in the experiment with Serca2 gene (setting [8]) is on record as “induction of Serca2 gene was induced”.

Consider `CCCCC/C=C\C/C=C\C/C=C\CCCCC(=O)NCCc1ccc(O)c(O)c1` [γ-linolenoyldopamine], for which the “strength of Serca2 gene inducing action” value in the experiment on Serca2 gene (vanilloid agonists) is “potent inducing action”. In addition, the “induction of Serca2 gene (mRNA)” value with Serca2 gene (setting [7]) is listed as “induced the Serca2 gene”.
